Values joined by “and” are separate entries in the source; they are usually repeats but may differ in a detail not shown here. Equal entries are not always repeated.
System: NCI-H196 complex spheroid growth, percent test/control
Test: Anticancer human tumor NCI-H196 cell line growth inhibition [AhR];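 further: seven days of drug exposure starting three days after plating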;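 on viability, T/C: 100% = DMSO vehicle control wells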
Conditions: for viability, T/C: stronger effect = lower value; for IC50: curve of compound
Source text: Multicellular complex tumor spheroid response to aryl hydrocarbon receptor antagonists in combination with a variety of drugs and investigational agents in selected tumor cell lines
The current study was undertaken to assess response to aryl hydrocarbon receptor antagonists in combination with standard-of-care drugs and investigational agents in solid tumor complex spheroid models. Complex spheroids include a stromal component modeled by human endothelial cells (HUVEC) and fibroblasts modeled by human mesenchymal stem cells (MSCs). The concentration ranges selected for each drug and investigational agent were based upon clinically achievable concentrations if the clinical Cmax of the agent was known.
Compounds. The drugs and investigational agents: BAY 2416964 (NSC825713), GNF351 (NSC835774), CH-223191 (NSC835775), CPI-455 (NSC825282), aza-TdCyd (NSC777586), decitabine (NSC127716), belinostat (NSC758774), entinostat (NSC756642), pevonedistat (NSC761192), tazemetostat (NSC777109), talazoparib (NSC765396), olaparib (NSC753686), selinexor (NSC780203), nedisertib (M3814, NSC802822), bortezomib (NSC756655), venetoclax (NSC766270), doxorubicin (NSC123127), elimusertib (BAY189344, NSC800525), ceralasertib (AZD6738, NSC777638), TAK-243 (NSC785004), alisertib (NSC759677), etoposide (NSC141540), topotecan (NSC609699), eribulin (NSC707389), gemcitabine (NSC613327), carboplatin (NSC241240), cisplatin (NSC119875), and SN-38 (NSC673596) were obtained from the National Cancer Institute (NCI) Developmental Therapeutics Program Chemical Repository (32). The FDA-approved anticancer drug set is available from the Developmental Therapeutics Program at https://dtp.cancer.gov/organization/dscb/obtaining/available plates.htm. […] The stock solutions were prepared in dimethyl sulfoxide (DMSO, Sigma-Aldrich, St. Louis, MO, cat. D2650), except for the platinum compounds which were prepared in saline (Quality Biological, Gaithersburg, MD, cat. 114-055-101), at 800-fold the tested concentration and stored at -70 degrees C prior to their use. All drugs and investigational agents were tested over a range starting from a high concentration at or near the clinical Cmax and decreasing in half-log increments. If the clinical Cmax for an agent had not been determined, the highest concentration tested was 10 microM (Table 1).
Cell Culture. All cells were maintained in an incubator at 37 degrees C and 5% CO2 with 95% humidity. The PDC lines were cultured according to standard operating procedures established by the NCI PDMR (https://pdmr.cancer.gov). Briefly, all PDCs were thawed and cultured in Matrigel-coated flasks prepared with a working solution of 1X Ham's F-12 nutrient mix, without supplementation (Invitrogen, Waltham, MA, cat. 11765054), 100 U/mL penicillin-streptomycin (Invitrogen, cat. 15140122), and 2.5% Matrigel (Corning Inc., Corning, NY, cat. 354248) for the first three passages. All PDCs were cultured in complete DMEM/F-12 media containing advanced DMEM/F-12 (Invitrogen, cat. 12634028), 4.9% defined fetal bovine serum, heat inactivated (HyClone Laboratories Inc., Logan, UT, cat. SH30070.03HI), 389 ng/mL hydrocortisone (Sigma-Aldrich, cat. H4001), 9.7 ng/mL human EGF recombinant protein (Invitrogen, cat. PHG0313), 23.4 microg/mL adenine (Sigma-Aldrich, cat. A2786), 97.3 U/mL penicillin-streptomycin (Invitrogen, cat. 15140122), 1.9 mM L-glutamine (Invitrogen, cat. 25030081), and 9.7 microM Y-27632 dihydrochloride (Tocris Bioscience, Bristol, United Kingdom, cat. 1254). The PDCs were cultured in complete DMEM/F12 media without 10 microM Y-27632 dihydrochloride for at least two passages prior to the screen. The established cell lines NCI-H1341 and […] were cultured in DMEM/F-12, HEPES (Invitrogen, cat. 11330032), 5% defined fetal bovine serum (HyClone Laboratories Inc., cat. SH30070.03), ITS premix universal culture supplement [insulin (5 microg/mL), transferrin (5 microg/mL), and selenious acid (5 ng/mL)] […]

| SMILES | viability, T/C (compound 0.000949 µM) | viability, T/C (compound 0.003 µM) | viability, T/C (compound 0.00949 µM) | viability, T/C (compound 0.03 µM) | viability, T/C (compound 0.0949 µM) | viability, T/C (compound 0.3 µM) | IC50 | viability, T/C (compound 0.00316 µM) | viability, T/C (compound 0.01 µM) | viability, T/C (compound 0.0316 µM) | viability, T/C (compound 0.1 µM) | viability, T/C (compound 0.316 µM) | viability, T/C (compound 1 µM) | viability, T/C (compound 0.949 µM) | viability, T/C (compound 3 µM) | viability, T/C (compound 0.000316 µM) | viability, T/C (compound 0.001 µM) | viability, T/C (compound 3.16 µM) | viability, T/C (compound 10 µM) |
| --- | --- | --- | --- | --- | --- | --- | --- | --- | --- | --- | --- | --- | --- | --- | --- | --- | --- | --- | --- |
| CC(C)CC(NC(=O)C(Cc1ccccc1)NC(=O)c1cnccn1)B(O)O (stereo not drawn) | 98.7% and 106% and 105% | 96.1% and 99.1% and 101% | 36.6% and 76.3% and 35.7% | 2.1% and 7.38% and 4.57% | 1.67% and 5.37% and 2.7% | 2.25% and 4.21% and 2% | 0.00732 µM and 0.0148 µM and 0.00737 µM | – | – | – | – | – | – | – | – | – | – | – | – |
| CC1COCCN1c1cc(-c2ccnn2C)c2ccnc(-c3ccn[nH]3)c2n1 (stereo not drawn) | – | – | – | – | – | – | > 1 µM | 88.9% and 98.2% and 94.9% | 96.8% and 97.7% and 89.9% | 87.6% and 92.7% and 96.8% | 70.2% and 70.5% and 75.3% | 67% and 59.4% and 75.4% | 65.5% and 56.8% and 61.1% | – | – | – | – | – | – |
| CCN(c1cc(-c2ccc(CN3CCOCC3)cc2)cc(C(=O)NCc2c(C)cc(C)[nH]c2=O)c1C)C1CCOCC1 | – | – | 98.5% and 117% and 104% | 103% and 99.6% and 104% | 92.1% and 98.2% and 99.4% | 111% and 101% and 107% | > 3 µM | – | – | – | – | – | – | 110% (2×) and 106% | 104% and 94.1% and 107% | – | – | – | – |
| CC[C@@]1(O)C(=O)OCc2c1cc1n(c2=O)Cc2cc3c(CN(C)C)c(O)ccc3nc2-1 | – | – | – | – | – | – | > 0.1 µM | 89.1% and 98% and 101% | 101% and 94% and 103% | 116% and 105% and 106% | 108% and 101% and 104% | – | – | – | – | 105% and 99.9% and 103% | 110% and 104% and 107% | – | – |
| CCc1c2c(nc3ccc(O)cc13)-c1cc3c(c(=O)n1C2)COC(=O)[C@]3(O)CC | 89.6% and 96.8% and 99.8% | 98.3% (2×) and 108% | 96.8% and 95.2% and 99.4% | 96.7% and 109% (2×) | 90.5% and 101% and 110% | 96.5% and 83.3% and 95.6% | > 0.3 µM | – | – | – | – | – | – | – | – | – | – | – | – |
| COc1cc(C2c3cc4c(cc3C(OC3OC5COC(C)OC5C(O)C3O)C3COC(=O)C23)OCO4)cc(OC)c1O (stereo not drawn) | – | – | – | – | – | – | > 10 µM | – | – | 114% and 96.5% and 94.6% | 103% and 110% and 111% | 122% and 107% and 91.5% | 94.3% and 121% and 94.5% | – | – | – | – | 93.5% and 114% and 91.3% | 90.1% and 89.2% and 76.2% |
| COc1cccc2c1C(=O)c1c(O)c3c(c(O)c1C2=O)CC(O)(C(=O)CO)CC3OC1CC(N)C(O)C(C)O1 (stereo not drawn) | – | – | – | – | – | – | 0.792 µM and 0.736 µM and 1.2 µM | – | – | 95.5% and 104% and 102% | 97.6% and 102% and 108% | 82.6% and 76.4% and 99.2% | 42.9% and 44.2% and 59% | – | – | – | – | 0.87% and 1.36% and 2.64% | 1.12% and 5.21% and 1.87% |
| Cn1ncnc1C1c2n[nH]c(=O)c3cc(F)cc(c23)NC1c1ccc(F)cc1 (stereo not drawn) | – | – | – | – | – | – | > 0.1 µM | 114% and 102% and 99.6% | 92.6% and 105% and 106% | 94.1% and 106% and 103% | 114% and 102% and 104% | – | – | – | – | 120% and 100% and 104% | 104% and 99.4% and 98.5% | – | – |
| Nc1ccccc1NC(=O)c1ccc(CNC(=O)OCc2cccnc2)cc1 | – | – | – | – | – | – | 0.492 µM and 0.773 µM and 0.509 µM | – | – | 84.5% and 90.6% and 85.8% | 73.3% and 82.2% and 79.5% | 59.8% and 65.2% and 60.3% | 35.9% and 48.4% and 33.5% | – | – | – | – | 15.2% and 17.5% and 16.5% | 0.66% and 0.89% and 0.63% |
| Nc1ccn(C2OC(CO)C(O)C2(F)F)c(=O)n1 (stereo not drawn) | – | – | – | – | – | – | 10 µM and > 10 µM | – | – | 72.3% and 95.5% and 90.8% | 57.2% and 87.9% and 86.6% | 46.1% and 58.9% and 65.1% | 50.2% and 56.8% and 62.2% | – | – | – | – | 61.4% and 61.8% and 66.2% | 56.5% and 68.2% and 66.8% |
| Nc1ncn(C2CC(O)C(CO)O2)c(=O)n1 (stereo not drawn) | – | – | – | – | – | – | > 1 µM | 110% and 113% and 104% | 96.1% and 116% and 107% | 93.2% and 102% and 110% | 97.1% and 113% and 103% | 105% and 124% and 93.8% | 116% and 104% and 105% | – | – | – | – | – | – |
| Nc1ncn(C2CC(O)C(CO)S2)c(=O)n1 (stereo not drawn) | 92.7% and 99.1% and 95.1% | 107% and 97.7% and 97.9% | 109% (2×) and 117% | 109% and 104% and 105% | 118% and 110% and 107% | 119% and 96.8% and 117% | > 0.3 µM | – | – | – | – | – | – | – | – | – | – | – | – |
| O=C(C=Cn1cnc(-c2cc(C(F)(F)F)cc(C(F)(F)F)c2)n1)NNc1cnccn1 | – | – | 73.6% and 72.9% and 69.5% | 63% and 56.7% and 62.2% | 29.8% and 8.08% and 13.8% | 8.48% and 5.65% and 9.96% | 0.0472 µM and 0.0352 µM and 0.0401 µM | – | – | – | – | – | – | 8.74% and 6.18% and 8.91% | 6.48% and 6.56% and 8.45% | – | – | – | – |
| O=C(c1cc(Cc2n[nH]c(=O)c3ccccc23)ccc1F)N1CCN(C(=O)C2CC2)CC1 | – | – | – | – | – | – | > 10 µM | – | – | 106% and 105% and 100% | 105% and 112% and 108% | 99.7% and 98.5% and 104% | 97.2% and 98.1% and 105% | – | – | – | – | 97.2% and 96.9% and 99.9% | 99.7% and 103% and 99.5% |
